Assay results published in ChEMBL document CHEMBL1201862, “PubChem BioAssay data set” (2004).
The source made the active and inactive calls.

What was measured:
H4 = experiment: Luminescence Cell-Based Dose Response HTS to Identify Activators of 5'UTR Stem-Loop Driven Prion Protein mRNA Translation in H4 Neuroglioblastoma Cells. [Related pubchem assays: 1829 (Project Summary), 1814 (Primary HTS)]; type: functional; details: Homo sapiens
[1] = Luminescence Cell-Based Dose Response HTS to Identify Activators of Luciferase Translation or Activity in H4 […] Cells. [Related pubchem assays: 1829 (Project Summary), 1814 (Primary HTS)]; type: functional
[2] = Luminescence Cell-Based Dose Confirmation HTS to Identify Activators of 5'UTR Stem-Loop Driven Alpha-Synuclein mRNA Translation in H4 Neuroglioblastoma Cells. [Related pubchem assays: 1829 (Project Summary), 1814 (Primary HTS)]; type: functional
Leucine aminopeptidase = molecular target: T1, Leucine aminopeptidase (Plasmodium falciparum 3D7, UniProt Q8IL11); experiment: P. falciparum M17LAP inhibitors, primary screen, biochemical, fluorogenic H-Leu-NHMec substrate, 1536-well (AID 1619); type: functional
T1 sequence (Q8IL11 whole entry): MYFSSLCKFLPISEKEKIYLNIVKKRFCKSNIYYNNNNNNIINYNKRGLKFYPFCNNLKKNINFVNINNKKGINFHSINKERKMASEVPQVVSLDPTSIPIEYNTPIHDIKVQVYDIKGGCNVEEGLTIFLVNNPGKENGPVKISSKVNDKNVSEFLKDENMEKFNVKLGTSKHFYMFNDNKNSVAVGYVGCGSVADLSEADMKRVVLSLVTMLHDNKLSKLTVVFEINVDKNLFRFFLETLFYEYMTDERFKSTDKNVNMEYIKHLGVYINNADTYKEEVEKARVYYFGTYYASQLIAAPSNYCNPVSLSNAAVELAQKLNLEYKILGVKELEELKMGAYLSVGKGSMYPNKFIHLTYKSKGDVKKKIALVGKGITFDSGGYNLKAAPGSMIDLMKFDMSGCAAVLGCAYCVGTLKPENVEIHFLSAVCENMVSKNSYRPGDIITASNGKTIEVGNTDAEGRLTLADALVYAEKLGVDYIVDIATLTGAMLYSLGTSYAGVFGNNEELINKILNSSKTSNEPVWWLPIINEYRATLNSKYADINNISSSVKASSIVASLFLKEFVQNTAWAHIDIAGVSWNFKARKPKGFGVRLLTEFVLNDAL

[3] = molecular target: T2, Replicative DNA helicase DnaB (Mycobacterium tuberculosis, UniProt P9WMR3); experiment: DnaB intein splicing inhibitors, dose response, biochemical, cell-free fluorescence (AID 449749); type: functional
T2 sequence (P9WMR3 whole entry): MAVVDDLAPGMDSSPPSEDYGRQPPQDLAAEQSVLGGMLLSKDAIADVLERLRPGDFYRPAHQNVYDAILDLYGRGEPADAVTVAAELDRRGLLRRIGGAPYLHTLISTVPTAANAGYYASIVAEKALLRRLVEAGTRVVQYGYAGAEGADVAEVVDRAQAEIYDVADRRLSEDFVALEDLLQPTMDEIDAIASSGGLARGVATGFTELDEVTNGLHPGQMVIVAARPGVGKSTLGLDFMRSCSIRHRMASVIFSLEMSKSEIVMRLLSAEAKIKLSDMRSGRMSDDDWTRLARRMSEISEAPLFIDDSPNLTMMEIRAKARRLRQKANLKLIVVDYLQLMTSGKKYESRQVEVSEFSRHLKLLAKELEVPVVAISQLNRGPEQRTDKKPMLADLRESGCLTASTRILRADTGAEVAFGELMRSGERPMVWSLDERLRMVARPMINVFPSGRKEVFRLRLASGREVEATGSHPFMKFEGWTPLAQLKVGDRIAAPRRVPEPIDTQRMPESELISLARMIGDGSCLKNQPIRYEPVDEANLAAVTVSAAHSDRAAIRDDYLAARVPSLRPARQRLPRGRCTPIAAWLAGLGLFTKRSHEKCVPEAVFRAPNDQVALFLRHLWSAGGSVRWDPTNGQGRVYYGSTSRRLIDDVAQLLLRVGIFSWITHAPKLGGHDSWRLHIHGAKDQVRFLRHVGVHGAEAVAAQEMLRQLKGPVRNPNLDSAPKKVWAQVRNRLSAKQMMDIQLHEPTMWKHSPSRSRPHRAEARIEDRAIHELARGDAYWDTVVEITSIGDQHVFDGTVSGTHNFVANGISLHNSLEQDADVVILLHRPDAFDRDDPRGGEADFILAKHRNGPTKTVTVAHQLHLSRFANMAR

Protein RecA = molecular target: T3, Protein RecA (Mycobacterium tuberculosis, UniProt P9WHJ3); experiment: Fluorescence Cell-Free Homogeneous Dose Retest to Identify Inhibitors of RecA-Intein Splicing Activity. [Related pubchem assays (depositor defined):AID2097, AID2223, AID489010, AID492950]; type: functional
T3 sequence (P9WHJ3 whole entry): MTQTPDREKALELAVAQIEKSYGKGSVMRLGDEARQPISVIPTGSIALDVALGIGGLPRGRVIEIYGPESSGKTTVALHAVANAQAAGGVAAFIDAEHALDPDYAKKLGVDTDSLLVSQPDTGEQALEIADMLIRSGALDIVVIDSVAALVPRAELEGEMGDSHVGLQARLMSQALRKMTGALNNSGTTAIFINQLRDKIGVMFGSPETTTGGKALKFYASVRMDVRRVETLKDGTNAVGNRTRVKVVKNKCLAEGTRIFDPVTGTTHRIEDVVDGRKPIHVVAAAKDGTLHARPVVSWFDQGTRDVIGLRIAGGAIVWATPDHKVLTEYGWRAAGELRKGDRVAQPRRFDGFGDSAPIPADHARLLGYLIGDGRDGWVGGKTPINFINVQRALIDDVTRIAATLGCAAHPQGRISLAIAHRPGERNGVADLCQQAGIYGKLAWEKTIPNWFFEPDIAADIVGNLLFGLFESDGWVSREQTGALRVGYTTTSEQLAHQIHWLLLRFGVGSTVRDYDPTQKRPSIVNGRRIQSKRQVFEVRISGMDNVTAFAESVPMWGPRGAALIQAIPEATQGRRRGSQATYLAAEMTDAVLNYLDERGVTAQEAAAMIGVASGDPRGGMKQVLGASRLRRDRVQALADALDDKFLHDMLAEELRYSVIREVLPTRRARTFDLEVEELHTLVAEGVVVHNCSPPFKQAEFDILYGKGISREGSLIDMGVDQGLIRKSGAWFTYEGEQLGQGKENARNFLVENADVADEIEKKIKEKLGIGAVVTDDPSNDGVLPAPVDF

[4] = Luminescence Cell-Based Dose Confirmation HTS to Identify Inhibitors of Platelet Dense Granule Release. [Related pubchem assays: 1663 (Primary HTS), 1678 (Summary of Project)]; type: functional
[5] = molecular target: Luciferin 4-monooxygenase (Photinus pyralis, UniProt P08659); experiment: firefly luciferase enzyme inhibitors, dose response, biochemical, luminescence (AID 1891)
Luciferin 4-monooxygenase, sequence (P08659 whole entry): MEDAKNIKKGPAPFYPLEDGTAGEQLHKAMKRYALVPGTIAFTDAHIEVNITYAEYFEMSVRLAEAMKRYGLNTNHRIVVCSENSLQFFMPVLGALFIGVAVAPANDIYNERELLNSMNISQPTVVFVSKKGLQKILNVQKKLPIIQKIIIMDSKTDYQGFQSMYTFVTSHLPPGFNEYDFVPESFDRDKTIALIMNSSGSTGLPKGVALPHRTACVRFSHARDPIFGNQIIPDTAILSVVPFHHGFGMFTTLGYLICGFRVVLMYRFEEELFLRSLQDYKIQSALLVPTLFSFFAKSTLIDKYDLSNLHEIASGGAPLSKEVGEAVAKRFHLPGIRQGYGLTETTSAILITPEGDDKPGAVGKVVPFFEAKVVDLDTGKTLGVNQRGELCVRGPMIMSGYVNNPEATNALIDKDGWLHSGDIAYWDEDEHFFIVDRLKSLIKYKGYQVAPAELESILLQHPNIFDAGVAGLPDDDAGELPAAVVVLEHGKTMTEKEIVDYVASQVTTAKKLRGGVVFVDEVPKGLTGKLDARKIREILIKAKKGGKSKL

[6] = molecular target: T4, Zinc finger protein mex-5 (Caenorhabditis elegans, UniProt Q9XUB2); experiment: MEX-5/TCR-2 RNA interaction inhibitors, dose response, biochemical, C. elegans, fluorescence polarization (AID 1960)
T4 sequence (Q9XUB2 whole entry): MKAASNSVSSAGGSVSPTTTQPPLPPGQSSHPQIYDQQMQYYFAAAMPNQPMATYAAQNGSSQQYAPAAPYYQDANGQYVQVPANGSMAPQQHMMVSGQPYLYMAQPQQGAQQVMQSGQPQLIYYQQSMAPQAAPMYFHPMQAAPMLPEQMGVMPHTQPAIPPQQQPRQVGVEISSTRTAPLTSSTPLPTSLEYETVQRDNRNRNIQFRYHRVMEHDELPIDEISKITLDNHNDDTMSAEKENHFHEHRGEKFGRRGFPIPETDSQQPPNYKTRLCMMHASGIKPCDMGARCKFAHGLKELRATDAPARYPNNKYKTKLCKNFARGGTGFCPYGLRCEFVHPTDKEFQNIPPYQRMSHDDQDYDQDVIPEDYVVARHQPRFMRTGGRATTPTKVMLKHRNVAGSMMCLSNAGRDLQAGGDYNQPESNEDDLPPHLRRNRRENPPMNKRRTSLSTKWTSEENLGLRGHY

[7] = molecular target: T5, RNA-binding protein pos-1 (Caenorhabditis elegans, UniProt G5EF15); experiment: inhibitors of POS-1/mex-3 RNA binding, dose response, biochemical, fluorescence polarization (AID 1964);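 also: purified POS-1 fused to maltose binding protein made in E. coli; potency of compounds blocking POS-1 binding to fluorescent RNA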
T5 sequence (G5EF15 whole entry): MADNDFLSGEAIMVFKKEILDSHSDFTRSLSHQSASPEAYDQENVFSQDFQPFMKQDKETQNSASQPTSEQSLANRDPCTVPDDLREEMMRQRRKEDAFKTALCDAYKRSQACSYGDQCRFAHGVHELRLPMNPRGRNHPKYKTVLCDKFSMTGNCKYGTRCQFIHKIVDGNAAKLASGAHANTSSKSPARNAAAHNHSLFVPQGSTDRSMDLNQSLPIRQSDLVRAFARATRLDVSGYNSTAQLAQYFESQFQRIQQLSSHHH

Cytochrome P450 2C19 = Cytochrome P450 2C19 (Homo sapiens, UniProt P33261); experiment: Cytochrome panel assay with activity outcomes. Panel member name: p450-cyp2c19 Compounds with AC50 equal or less than 10 uM are considered active; type: functional; details: read-out: AC50
Cytochrome P450 2C19, sequence (P33261 whole entry): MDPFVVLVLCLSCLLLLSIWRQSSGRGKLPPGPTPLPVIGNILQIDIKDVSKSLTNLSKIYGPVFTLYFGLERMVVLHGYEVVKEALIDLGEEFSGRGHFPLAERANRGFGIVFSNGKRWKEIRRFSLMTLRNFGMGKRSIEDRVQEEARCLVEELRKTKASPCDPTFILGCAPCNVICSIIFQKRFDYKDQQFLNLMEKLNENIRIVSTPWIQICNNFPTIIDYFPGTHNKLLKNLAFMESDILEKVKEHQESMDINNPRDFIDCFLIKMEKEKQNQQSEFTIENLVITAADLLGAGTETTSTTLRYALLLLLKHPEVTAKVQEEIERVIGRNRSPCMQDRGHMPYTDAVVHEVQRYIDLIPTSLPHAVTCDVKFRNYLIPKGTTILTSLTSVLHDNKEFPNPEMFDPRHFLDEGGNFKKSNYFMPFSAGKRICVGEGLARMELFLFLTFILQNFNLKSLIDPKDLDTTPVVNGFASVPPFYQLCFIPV

Cytochrome P450 1A2 = molecular target: T6, Cytochrome P450 1A2 (Homo sapiens, UniProt P05177);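 also: PubChem cytochrome P450 panel assay, CYP1A2 panel member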
T6 sequence (P05177 whole entry): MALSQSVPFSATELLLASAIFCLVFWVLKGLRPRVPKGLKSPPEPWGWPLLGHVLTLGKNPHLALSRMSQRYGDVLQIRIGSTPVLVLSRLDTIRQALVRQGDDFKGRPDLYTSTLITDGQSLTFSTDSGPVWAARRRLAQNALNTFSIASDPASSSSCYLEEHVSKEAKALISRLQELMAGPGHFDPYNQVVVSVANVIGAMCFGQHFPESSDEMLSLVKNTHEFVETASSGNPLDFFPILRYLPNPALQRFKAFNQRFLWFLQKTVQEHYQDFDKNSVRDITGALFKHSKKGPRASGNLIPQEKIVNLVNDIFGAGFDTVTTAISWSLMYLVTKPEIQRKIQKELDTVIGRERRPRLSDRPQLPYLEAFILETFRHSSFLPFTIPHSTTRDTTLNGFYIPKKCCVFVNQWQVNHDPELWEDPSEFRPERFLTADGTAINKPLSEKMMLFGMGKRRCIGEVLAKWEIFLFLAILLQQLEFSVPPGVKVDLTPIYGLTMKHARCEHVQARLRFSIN

Compound	EC50 (H4)	EC50 [1]	EC50 [2]	IC50 (Leucine aminopeptidase)	also measured
O=C(Nc1c(C(=O)Nc2ccc3c(c2)OCCO3)cnn1-c1ccccc1Cl)c1ccco1	> 120 µM (not active)	20.5 µM (active)	20 µM (active)		
COc1ccc2[nH]cc(C(=O)CN3CCC(C)CC3)c2c1	14.4 µM (active)	17.6 µM (active)	5.71 µM (active)		
O=C(Nc1ccccc1)NC(Cc1ccc(O)cc1)C(=O)O (stereo unspecified)				34.7 µM (active)	
O=C(O)CCc1nnc(SCC(=O)Nc2ccc(Cl)c(C(F)(F)F)c2)nc1O				2.82 µM (active)	
COC(=O)c1c(NC(=O)/C=C/C(=O)O)sc(C)c1-c1ccc(C)c(C)c1				35.6 µM (active)	AC50 [3]: 15.1 µM (active); EC50 (Protein RecA): 5.69 µM (active)
Cc1ccc2nc(NC(=O)COC(=O)c3ccncc3)sc2c1	11.4 µM (active)	> 120 µM (not active)	> 120 µM (not active)		
Cn1c(CCNC(=O)c2cccs2)nnc1SCC(=O)Nc1nc(-c2ccccc2)cs1	27.3 µM (active)	24.5 µM (active)	> 120 µM (not active)		
COc1ccc2cc(/C=C3\SC(=S)NC3=O)c(N3CCOCC3)nc2c1				1.76 µM (active)	
CSc1nnc(N2C(=O)C(O)=C(C(=O)c3ccco3)C2c2cccc(Cl)c2)s1 (stereo unspecified)					EC50 [4]: > 112 µM (not active); EC50 [5]: > 112 µM (not active); EC50 [6]: 14.3 µM (active); EC50 [7]: 31.3 µM (active)
C/N=C(\c1ccc(C)cc1)n1c(=S)nc(-c2ccc(C)cc2)n(C)c1=S	21.3 µM (active)	15.4 µM (active)	> 120 µM (not active)		
CN(C(=O)c1ccc(OC2CCN(CCc3ccccc3)CC2)cc1)C1CCCCC1	> 120 µM (not active)	18.5 µM (active)	13.3 µM (active)		
Cc1ccc(-c2nc(N3CCOCC3)s[n+]2-c2ccccc2)cc1.[O-][Cl+3]([O-])([O-])[O-]	31.5 µM (active)	7.52 µM (active)	7.82 µM (active)		
N#Cc1c(/N=C/C2C(=O)NC(=S)NC2=O)sc2c1CCCC2				110 µM (active)	
CC(/C=C1\N=C(SCc2ccccc2Cl)SC1=O)=C\c1ccccc1					AC50 (Cytochrome P450 2C19): 7.08 µM (inconclusive); AC50 (Cytochrome P450 1A2): 4.47 µM (inconclusive); EC50 [6]: > 300 µM (not active); EC50 [7]: > 300 µM (not active)
